Assay results reported in patent EP0891975A1 (priority 1996, dated 1997).
Read-outs that look alike come from different tables or passages of the source.

What was measured:
[1] = test system: Tomato Late Blight Fungus (Phytophthora infestans); assay type: in vivo; details: 250 ppm, 10 ml per pot foliar spray, tomato (Red Cherry), degree of disease vs untreated pot after 24 hours moist chamber and 4 days greenhouse
[2] = Acute toxicity in mice in single oral administration; details: mouse, in vivo, 30 mg/kg, 30 mg-active ingredient/kg, five 6-week-old CD-1 male mice, 7 days after administration, read-out: Death Rate (%)
Procedure: Acute toxicity (p.o.) in mice of compound Nos. 8, 10, 13, 22, 23, 38, 42, and 52 was examined as follows. For comparison, compounds (IV), (V) and (VI) disclosed in JP-A-2-62876 were tested similarly.
Compound Nos. 8, 10, 22, 23, 38, and 42 (30 mg each) were each suspended in 10 ml of a 0.5% CMC-Na aqueous solution. Compound Nos. 13 and 52 and compounds (IV), (V) and (VI) (30 mg each) were each suspended in 10 ml of a 0.5% tragacanth gum aqueous solution. The suspension was orally given to a group each consisting of five 6-week-old CD-1 male mice (available from Charles River) at a dose of 10 ml-suspension per kg of the body weight. The number of dead mice was counted after 7 days from the administration to obtain a death rate.

[3] = test system: Larvae of Nilaparvata lugens; assay: Insecticidal effect on larvae of Nilaparvata lugens (spray on rice seedling in glass cylinder); assay type: in vivo; details: 120 h, read-out: Death Rate (%)
Procedure: A rice seedling was setted in a glass cylinder (inner diameter: 3 cm; length: 17 cm), and five 4th instar larvae of Nilaparvata lugens were set free therein. The agricultural and horticultural pesticide of the present invention (an emulsifiable concentrate) was prepared in accordance with Formulation Example 3 and diluted with water, and 0.5 ml of the resulting emulsion was sprayed in the cylinder by means of a spray tower (manufactured by Mizuho Rika) (duplicates at 1 concentration). Five days after the treatment, the mortality and agony of the larvae were examined to obtain a death rate (%) taking an agonizing insect as a 1/2 dead insect. The results obtained are shown in Table 4 (the compound numbers in Table 4 correspond to those in Tables 1, 2 and 3).

[4] = test system: Larvae of Plutella xylostella; assay: Insecticidal effect on larvae of Plutella xylostella (cabbage leaf disc dip); assay type: in vivo; details: foliar, 96 h, read-out: Death Rate (%)
Procedure: The agricultural and horticultural pesticide of the present invention (a wettable powder) was obtained in accordance with Formulation Example 1 and diluted with water to prepare a suspension having a prescribed concentration. A disc (6 cm in diameter) cut out of a cabbage leaf was soaked in the suspension for 1 minute, air-dried, and placed in a plastic cup (inner diameter: 7 cm). Five 3-instar larvae of Plutella xylostella were put in the cup (duplicates at one concentration). Four days later, the death and agony of the larvae were examined to obtain a death rate (%) taking an agonizing insect as a 1/2 dead insect. The results obtained are shown in Table 5 (the compound numbers in Table 5 correspond to those in Tables 1, 2 and 3).

[5] = test system: Rice Blast Fungus (Magnaporthe grisea); assay type: in vivo; details: 250 ppm, 10 ml/pot foliar spray, rice (Akinishiki), lesions per leaf counted vs untreated pot after 24 hours moist chamber and 7 days greenhouse
[6] = 500 ppm, emulsifiable concentrate diluted with water, 4th instar larvae, five days after treatment, agonizing insect counted as 1/2 dead
[7] = 500 ppm, wettable powder suspension, 3-instar larvae, four days later, agonizing insect counted as 1/2 dead

**Q.** With Cc1nn(C)c(C(=O)NCc2ccc(Oc3ccc4ccccc4c3)nc2)c1Cl [compound 22] as the compound, how does the “Control Value (%)” value [1] read?
**A.** 100%

**Q.** What about the mortality at 168 h [2] of the same compound?
**A.** 0%

**Q.** For Cc1nn(C)c(C(=O)NCc2ccc(Oc3cccc(Cl)c3)nc2)c1C [compound 8], which mortality at 500 ppm [3, 6] is on record?
**A.** 100%

**Q.** And the “Control Value (%)” value [1]?
**A.** 100%

**Q.** What about the mortality at 168 h [2] of the same compound?
**A.** 0%

**Q.** With Cn1nc2c(c1C(=O)NCc1ccc(Oc3ccc4ccccc4c3)nc1)CCC2 [compound 42] as the compound, how does the mortality at 500 ppm [3, 6] read?
**A.** 90%

**Q.** And the mortality at 500 ppm [4, 7]?
**A.** 100%

**Q.** What about the “Control Value (%)” value [1] of the same compound?
**A.** 100%

**Q.** And the mortality at 168 h [2]?
**A.** 0%

**Q.** With COc1c(C)nn(C)c1C(=O)N(Cc1ccc(Oc2ccc3ccccc3c2)nc1)C(C)=O [compound 52] as the compound, how does the mortality at 500 ppm [3, 6] read?
**A.** 90%

**Q.** What about the “Control Value (%)” value [1] of the same compound?
**A.** 100%

**Q.** And the mortality at 168 h [2]?
**A.** 0%

**Q.** With Cc1nn(C)c(C(=O)NCc2ccc(Oc3ccc4ccccc4c3)nc2)c1Br [compound 23] as the compound, how does the mortality at 168 h [2] read?
**A.** 0%

**Q.** For CCc1nn(C)c(C(=O)NCc2ccc(Oc3cccc(C(F)(F)F)c3)nc2)c1Cl [compound 13], which mortality at 500 ppm [3, 6] is on record?
**A.** 100%

**Q.** And the mortality at 500 ppm [4, 7]?
**A.** 100%

**Q.** What about the “Control Value (%)” value [5] of the same compound?
**A.** 87%

**Q.** And the “Control Value (%)” value [1]?
**A.** 85%

**Q.** What about the mortality at 168 h [2] of the same compound?
**A.** 0%

**Q.** What does the source list for Cc1nn(C)c(C(=O)NCc2ccc(Oc3cccc(C(F)(F)F)c3)nc2)c1C [Compound No. 10, N-[6-(3-Trifluoromethylphenoxy)-3-pyridylmethyl]-1,3,4-trimethyl-5-pyrazolecarboxamide]?
**A.** mortality at 500 ppm [3]: 100%; mortality at 500 ppm [4]: 100%; Control Value (%) [5]: 89%; Control Value (%) [1]: 100%; mortality at 168 h [2]: 0%

**Q.** What does the source list for CCc1nn(C)c(C(=O)NCc2ccc(Oc3ccc4ccccc4c3)nc2)c1Cl [compound 38]?
**A.** mortality at 500 ppm [3, 6]: 90%; mortality at 500 ppm [4, 7]: 90%; Control Value (%) [5]: 100%; mortality at 168 h [2]: 0%
